# From patent EP3325465B1, “PESTICIDALLY ACTIVE PYRAZOLE DERIVATIVES” (Syngenta Participations AG, priority 2015, dated 2017)
# Where two headings read alike, the source gives them in different places.
# How the values were obtained:
# Type in all cases: in vivo
# [1] = tested on: Tetranychus urticae (Two-spotted spider mite); assay: Tetranychus urticae bean leaf disc spray test; conditions: foliar, 192 h, application rate of 200 ppm, mortality on mixed population (mobile stages) 8 days after infestation
# Text: (§1) The pesticidal/insecticidal properties of the compounds according to embodiments 1 or 2 can be illustrated via the following tests: Spodoptera littoralis (Egyptian cotton leaf worm) • Cotton leaf discs were placed onto agar in 24-well microtiter plates and sprayed with aqueous test solutions prepared from 10'000 ppm DMSO stock solutions. After drying the leaf discs were infested with five L1 larvae. […] Plutella xylostella (Diamond back moth): 24-well microtiter plates with artificial diet were treated with aqueous test solutions prepared from 10'000 ppm DMSO stock solutions by pipetting. After drying, the plates were infested with L2 larvae (10 to 15 per well). The samples were assessed for mortality and growth inhibition in comparison to untreated samples 5 days after infestation. […] Diabrotica balteata, (Corn root worm) • Maize sprouts placed onto an agar layer in 24-well microtiter plates were treated with aqueous test solutions prepared from 10'000 ppm DMSO stock solutions by spraying. After drying, the plates were infested with L2 larvae (6 to 10 per well). […] Thrips tabaci (Onion thrips): Sunflower leaf discs were placed on agar in 24-well microtiter plates and sprayed with aqueous test solutions prepared from 10'000 ppm DMSO stock solutions. After drying the leaf discs were infested with a thrips population of mixed ages. The samples were assessed for mortality 6 days after infestation. […] Tetranychus urticae (Two-spotted spider mite): Bean leaf discs on agar in 24-well microtiter plates were sprayed with aqueous test solutions prepared from 10'000 ppm DMSO stock solutions. After drying the leaf discs were infested with a mite population of mixed ages. The samples were assessed for mortality on mixed population (mobile stages) 8 days after infestation. […] Euschistus heros (Neotropical Brown Stink Bug): • Two weeks old soybean plants were sprayed in a turn table spray chamber with the diluted spray solutions. After drying 2 soybean seeds were added and plants were infested with 10 N2 nymphs of the neotropical brown stink bug Euschistus heros in plastic test boxes. The samples were assessed for mortality in comparison to untreated samples 5 days after infestation. • The following compounds gave at least 80% mortality of Euschistus heros at an application rate of 12.5 ppm: Compounds 3 , 4 , 8 , 39 , 43 , 44 , 46 , 75 , 76 , 77 , 78 , 79 , 80 , 81 , 82 , 88 , 90 , 93 and 95 . Myzus persicae (Green peach aphid): Sunflower leaf discs were placed on agar in a 24-well microtiter plate and sprayed with test solutions at an application rate of 200 ppm. After drying, the leaf discs were infested with an aphid population of mixed ages. After an incubation period of 6 DAT, samples were checked for mortality. The following compounds gave at least 50% mortality of Myzus persicae: Compounds 3 , 4 , 8 , 43 , 44 , 75 , 76 , 77 , 80 , 81 , 90 and 92 . Myzus persicae (Green peach aphid): • Test compounds were applied by pipette into 24 well plates and mixed with Sucrose solution. Application rate: 12.5ppm. The plates were closed with a stretched parafilm. A plastic stencil with 24 holes is placed onto the plate and infested pea seedlings were placed directly on the Parafilm. The infested plate is closed with a gel blotting paper and another plastic stencil and then turned upside down. […]
# [2] = tested on: Spodoptera littoralis (Egyptian cotton leaf worm); assay: Spodoptera littoralis cotton leaf disc spray test, L1 larvae; conditions: foliar, 72 h
# Text: as §1
# [3] = tested on: Euschistus heros (Neotropical Brown Stink Bug); assay: Euschistus heros soybean plant spray test, N2 nymphs; conditions: 120 h, application rate of 12.5 ppm, 5 days after infestation, N2 nymphs, read-out: mortality of Euschistus heros
# Text: as §1
# [4] = tested on: Myzus persicae (Green peach aphid); assay: Myzus persicae sunflower leaf disc spray test; conditions: foliar, 144 h, application rate of 200 ppm, leaf disc spray, 6 DAT, read-out: mortality of Myzus persicae
# Text: as §1
# [5] = tested on: Plutella xylostella (Diamond back moth); assay: Plutella xylostella artificial diet test, L2 larvae; conditions: 120 h, application rate of 200 ppm, mortality and growth inhibition 5 days after infestation
# Text: as §1
# [6] = tested on: Diabrotica balteata, (Corn root worm); assay: Diabrotica balteata maize sprout spray test, L2 larvae; conditions: 96 h
# Text: as §1
# [7] = tested on: Thrips tabaci (Onion thrips); assay: Thrips tabaci sunflower leaf disc spray test; conditions: foliar, 144 h, application rate of 200 ppm, mortality 6 days after infestation, mixed ages
# Text: as §1
# [8] = tested on: Myzus persicae (Green peach aphid); assay: Myzus persicae sucrose solution / Parafilm feeding test; conditions: 120 h, read-out: mortality of Myzus persicae
# Text: as §1
# [9] = application rate of 200 ppm, 3 days after infestation, L1 larvae, read-out: mortality
# [10] = application rate of 200 ppm, 4 days after infestation, L2 larvae, read-out: mortality
# [11] = Application rate: 12.5ppm, sucrose solution, 5 days after infestation
Compound,pest or weed control at 200 ppm [1] [%],"mortality at 200 ppm [2, 9] [%]",mortality at 12.5 ppm [3] [%],mortality at 200 ppm [4] [%],pest or weed control at 200 ppm [5] [%],"mortality at 200 ppm [6, 10] [%]",pest or weed control at 200 ppm [7] [%],mortality at 200 ppm [2] [%],mortality at 12.5 ppm [8] [%],mortality at 200 ppm [6] [%],"mortality at 12.5 ppm [8, 11] [%]"
"Cn1nc(C(F)(F)C(F)(F)F)c(C(F)(F)F)c1-c1cc(-c2ccc(Cl)c(C(=O)NC3CC3)c2)on1 [Compound 8, 2-chloro-N-cyclopropyl-5-[3-[2-methyl-5-(1,1,2,2,2-pentafluoroethyl)-4-(trifluoromethyl)pyrazol-3-yl]isoxazol-5-yl]benzamide]",≥ 80,≥ 80,≥ 80,≥ 50,≥ 80,≥ 80,≥ 80,–,–,–,–
"Cn1nc(C(F)(F)C(F)(F)F)c(C(F)(F)F)c1-c1noc(-c2ccc(Cl)c(C(=O)NC3(C#N)CC3)c2)n1 [Compound 10, 2-Chloro-N-(1-cyanocyclopropyl)-5-[3-[2-methyl-5-(1,1,2,2,2-pentafluoroethyl)-4-(trifluoromethyl)pyrazol-3-yl]-1,2,4-oxadiazol-5-yl]benzamide]",–,–,–,–,≥ 80,–,≥ 80,≥ 80,≥ 80,≥ 80,–
"Cn1cc(-c2c(C(F)(F)F)c(C(F)(F)C(F)(F)F)nn2C)nc1-c1ccc(Cl)c(C(=O)NC2CC2)c1 [Compound 29, 2-chloro-N-cyclopropyl-5-[1-methyl-4-[2-methyl-5-(1,1,2,2,2-pentafluoroethyl)-4-(trifluoromethyl)pyrazol-3-yl]imidazol-2-yl]benzamide]",≥ 80,≥ 80,–,–,≥ 80,≥ 80,–,–,–,–,≥ 80
"Cn1nc(C(F)(F)C(F)(F)F)c(C(F)(F)F)c1-c1cnn(-c2ccc(Cl)c(C(=O)NC3(C#N)CC3)c2)c1 [Compound 38, 2-chloro-N-(1-cyanocyclopropyl)-5-[4-[2-methyl-5-(1,1,2,2,2-pentafluoroethyl)-4-(trifluoromethyl)pyrazol-3-yl]pyrazol-1 - yl]benzamide]",–,–,–,–,–,–,–,–,–,–,≥ 80
"Cn1nc(-c2ccc(Cl)c(C(=O)NC3CC3)c2)cc1-c1c(C(F)(F)F)c(C(F)(F)C(F)(F)F)nn1C [Compound 39, 2-chloro-N-cyclopropyl-5-[1-methyl-5-[2-methyl-5-(1,1,2,2,2-pentafluoroethyl)-4-(trifluoromethyl)pyrazol-3-yl]pyrazol-3-yl]benzamide]",≥ 80,≥ 80,≥ 80,–,≥ 80,≥ 80,≥ 80,–,–,–,≥ 80
"Cn1nc(C(F)(F)C(F)(F)F)c(C(F)(F)F)c1-c1cc(-c2ccc(Cl)c(C(=O)NC3(C#N)CC3)c2)[nH]n1 [Compound 72, 2-chloro-N-(1-cyanocyclopropyl)-5-[3-[2-methyl-5-(1,1,2,2,2-pentafluoroethyl)-4-(trifluoromethyl)pyrazol-3-yl]-1H-pyrazol-5-yl]benzamide]",–,≥ 80,–,–,≥ 80,≥ 80,–,–,–,–,≥ 80
"Cn1nc(C(F)(F)C(F)(F)F)c(C(F)(F)F)c1-c1cc(-c2ccc(Cl)c(C(=O)NC3(C(=O)O)CC3)c2)on1 [Compound 75, 1-[[2-chloro-5-[3-[2-methyl-5-(1,1,2,2,2-pentafluoroethyl)-4-(trifluoromethyl)pyrazol-3-yl]isoxazol-5-yl]benzoyl]amino]cyclopropanecarboxylic acid]",–,–,≥ 80,≥ 50,–,≥ 80,≥ 80,–,–,–,≥ 80
"C#CCNC(=O)c1cc(-c2cc(-c3c(C(F)(F)F)c(C(F)(F)C(F)(F)F)nn3C)no2)ccc1Cl [Compound 79, 2-chloro-5-[3-[2-methyl-5-(1,1,2,2,2-pentafluoroethyl)-4-(trifluoromethyl)pyrazol-3-yl]isoxazol-5-yl]-N-prop-2-ynyl-benzamide]",≥ 80,≥ 80,≥ 80,–,≥ 80,≥ 80,≥ 80,–,–,–,–
"Cn1nc(C(F)(F)C(F)(F)F)c(C(F)(F)F)c1-c1cc(-c2ccc(Cl)c(C(=O)N[C@H]3C[C@@H]3C(F)(F)F)c2)on1 [Compound 80, 2-chloro-5-[3-[2-methyl-5-(1,1,2,2,2-pentafluoroethyl)-4-(trifluoromethyl)pyrazol-3-yl]isoxazol-5-yl]-N-[(1S,2S)-2-(trifluoromethyl)cyclopropyl]benzamide]",≥ 80,≥ 80,≥ 80,≥ 50,≥ 80,≥ 80,≥ 80,–,–,–,–
"CCNC(=O)c1cc(-c2cc(-c3c(C(F)(F)F)c(C(F)(F)C(F)(F)F)nn3C)no2)ccc1Cl [Compound 90, 2-chloro-N-ethyl-5-[3-[2-methyl-5-(1,1,2,2,2-pentafluoroethyl)-4-(trifluoromethyl)pyrazol-3-yl]isoxazol-5-yl]benzamide]",≥ 80,≥ 80,≥ 80,≥ 50,≥ 80,≥ 80,≥ 80,–,–,–,–
"CNC(=O)c1cc(-c2cc(-c3c(C(F)(F)F)c(C(F)(F)C(F)(F)F)nn3C)no2)ccc1Cl [Compound 92, 2-chloro-N-methyl-5-[3-[2-methyl-5-(1,1,2,2,2-pentafluoroethyl)-4-(trifluoromethyl)pyrazol-3-yl]isoxazol-5-yl]benzamide]",≥ 80,≥ 80,–,≥ 50,≥ 80,≥ 80,≥ 80,–,–,–,≥ 80
"CC(C)NC(=O)c1cc(-c2cc(-c3c(C(F)(F)F)c(C(F)(F)C(F)(F)F)nn3C)no2)ccc1Cl [Compound 93, 2-chloro-N-isopropyl-5-[3-[2-methyl-5-(1,1,2,2,2-pentafluoroethyl)-4-(trifluoromethyl)pyrazol-3-yl]isoxazol-5-yl]benzamide]",≥ 80,≥ 80,≥ 80,–,≥ 80,≥ 80,≥ 80,–,–,–,≥ 80
"Cn1nc(C(F)(F)C(F)(F)F)c(C(F)(F)F)c1-c1cc(-c2ccc(Cl)c(C(=O)NCC(F)(F)F)c2)on1 [Compound 96, 2-chloro-5-[3-[2-methyl-5-(1,1,2,2,2-pentafluoroethyl)-4-(trifluoromethyl)pyrazol-3-yl]isoxazol-5-yl]-N-(2,2,2-trifluoroethyl)benzamide]",–,≥ 80,–,–,≥ 80,≥ 80,≥ 80,–,–,–,≥ 80
"Cn1nc(C(F)(F)C(F)(F)F)c(C(F)(F)F)c1-c1cc(-c2ccc(Cl)c(C(=O)NCC(F)F)c2)on1 [Compound 97, 2-chloro-N-(2,2-difluoroethyl)-5-[3-[2-methyl-5-(1,1,2,2,2-pentafluoroethyl)-4-(trifluoromethyl)pyrazol-3-yl]isoxazol-5-yl]benzamide]",–,≥ 80,–,–,≥ 80,≥ 80,–,–,–,–,≥ 80
